The values that follow come from patent publication US10350176B2 (priority 2013, dated 2019).

Where two headings read alike, the source gives them in different places.

One data set deals with Leishmania major. As to conditions: primary screening, library compounds at 1 μM. On the procedure:
The compounds were screened for growth inhibition of the parasite Leishmania major.
The compounds were reformatted into 384-well polypropylene plates (Corning, cat. No. 3657) at a final concentration of 1 μM in DMSO and used to screen the growth inhibition of the parasite Leishmania major.

The test system of data set [1] is Leishmania major in promastigote form. Nature of the data set: Promastigote growth inhibition assay (CellTiter-Blue). The data set is classed as cell-based. The settings on record: 48 hours incubation; number of viable promastigotes reduced by 50%; read-out: L. major, in promastigote form (IC50). (In general: Alamar Blue is a resazurin reagent that responds to reducing activity.)
Procedure: Antiparasitic activity in culture of promastigotes (insect form) was measured using a standard microdiluting method, determining the minimum inhibitory concentration (MIC) of the test sample, which leads to inhibition of parasite growth.
For promastigote growth inhibition assays the subculture 2 of L. major was cultured in Schneider's insect medium (Sigma, St. Louis, Mo., cat. No. S0146) supplemented with 50 μm/ml gentamicin (Sigma, St. Louis, Mo., cat. No. G1272), 63.7 μg/ml penicillin G (Sigma, St. Louis, Mo., cat. No. PENK), 100 μg/ml streptomycin (Sigma, St. Louis, Mo., cat. no. S6501), 2% human urine and 10% heat-inactivated fetal bovine serum (Sigma, St. Louis, Mo., cat. No. F2442).
Leishmania promastigotes in the logarithmic growth phase were dispensed into black 384-well plates (Corning, New York, N.Y., cat. No. 3571) at a concentration of 15,000 parasites/μl/well using a Multidrop Combi instrument (Thermo Fisher Scientific Inc., Waltham, Mass.). […] The metabolic capacity of the parasite was measured after 2.5 hours of incubation using the CellTiter-Blue® Reagent (Promega Corporation, Madison, Wis., cat. No. G8082) using EnVision Multilabel Reader (PerkinElmer Inc., Waltham, Mass.). Data were analyzed using non-linear regression (log (inhibitor) vs. response-variable slope). […]

The test system of data set [2] is L. major, antimony salts resistant, in promastigote form. The experiment in a line: Promastigote growth inhibition assay, strain resistant to antimony salts. As to conditions: 48 hours incubation. Type of data set: cell-based, Leishmania major.
Procedure: Leishmania promastigotes in the logarithmic growth phase were dispensed into black 384-well plates (Corning, New York, N.Y., cat. No. 3571) at a concentration of 15,000 parasites/μl/well using a Multidrop Combi instrument (Thermo Fisher Scientific Inc., Waltham, Mass.). Immediately thereafter DPI (1 nM-500 nM) or amphotericin B (20 nM-10 μM) were added using “pitool” connected to JANUS® Automated Workstation (PerkinElmer Inc., Waltham, Mass.) and incubated for 48 hours. The metabolic capacity of the parasite was measured after 2.5 hours of incubation using the CellTiter-Blue® Reagent (Promega Corporation, Madison, Wis., cat. No. G8082) using EnVision Multilabel Reader (PerkinElmer Inc., Waltham, Mass.). Data were analyzed using non-linear regression (log (inhibitor) vs. response-variable slope). Preparation of the graphs and IC50 calculation were performed using GraphPad Prism 5 software (GraphPad Software, USA). The IC50 value was calculated by non-linear regression method as the concentration of DPI in which the number of viable promastigotes was reduced by 50% (values given below in Table 1).
For data set [3], the system named is Leishmania major in amastigote form. The experiment in a line: Cytotoxic effect on intracellular amastigotes in macrophages (flow cytometry, cell smears). The data set is classed as cell-based. The settings on record: concentration at which number of infected macrophages decreased by 50%; 48 hours co-incubation. In general terms: Flow cytometry measures light scatter and fluorescence of single cells or particles in a stream.
Procedure: Macrophage precursors were isolated from bone marrow and incubated for 7 days at 37° C. and 5% CO2 in DMEM supplemented with supernatant of L929 cells (20 percent by volume) containing M-CSF. After differentiation the macrophages were infected with E-GFP-L. major in stationary phase of growth at a ratio of 1:10. Then the macrophages were incubated in DMEM supplemented with the supernatant of L929 cells (20% volume) containing M-CSF at 37° C. and 5% CO2. After 24 hours, the medium containing the extracellular parasites was discarded and the plates were washed 3 times with HBSS medium (Hanks' Balanced Salt Solution, Sigma, St. Louis, Mo., cat. No. H9269). […]
The samples were analyzed on a FACSCalibur flow cytometer (Becton, Dickinson and Company, Franklin Lakes, N.J.) using CellQuest Pro software (Becton, Dickinson and Company, Franklin Lakes, N.J.). […] The results were measured for 10,000 macrophages in the first experiment and for 20,000 macrophages in the second experiment. […]
Smears were stained with Giemsa (Sigma, St. Louis, Mo., cat. No. 11700) and analysed by fluorescence microscopy Leica6000DM (Leica Microsystems GmbH, Wetzlar, Germany) at a magnification 400×. The total number of parasites in 500 macrophages was determined. […]

Data set [4] has as its system CCD 841 (intestinal epithelial cells). The settings on record: DPI 9.8 nM-1.25 μM; 48 hours incubation.
Procedure: (§1) Human cells CCD 841 (intestinal epithelial cells) and MRC5 (fetal lung fibroblasts) in appropriate growth media were dispensed into black 384-well plates (Corning, cat. No. 3571) at a density of 15,000 cells/25 μl/well using a Multidrop Combi (Thermo Scientific). After 48 hours incubation at 37° C. and 5% CO2, cell viability was determined using a commercial assay CellTiter Blue Cell Viability Assay (Promega, cat. No. G8082). […] Fluorescence intensity was measured by the detector (reader) EnVision (Perkin Elmer), and measured data were analysed using the software Prism5 (GraphPad Software, Inc.).
Data set [5] deals with MRC5 (fetal lung fibroblasts). The settings on record: DPI 9.8 nM-1.25 μM; 48 hours incubation.
Procedure: as §1
A further data set deals with Plasmodium falciparum. As to conditions: kills Plasmodium falciparum; Yuan et al. Nat Chem Biol 2009; cited from earlier work.

Broadly, the IC50 is the midpoint of a concentration-inhibition curve. For the compound `c1ccc2c(c1)[I+]c1ccccc1-2` [DPI, [1,1′-biphenyl]-2,2′-diyliodonium], the figures for the “growth inhibition of the parasite Leishmania major” value in the data set on Leishmania major and in the data set on Leishmania major (listed as diphenyleneiodonium (DPI)) were “potent inhibitor of the growth of Leishmania major” and “effective inhibitor”, respectively. In addition, the values for the IC50 (in data set [1]; in data set [2]; in the data set with Plasmodium falciparum) were 10 nM, 15 nM and 0.06 to 1 nM, respectively. In addition, the “L. major, in intracellular amastigote form (LD50, μM)” value in data set [3] came to 0.066 µM. For the same compound, the “viability of human CCD 841 cells” value in data set [4] is listed as “no negative effect on the viability”. Besides, the “viability of human MRC5 cells” value in data set [5] was “no negative effect on the viability”.

On to `C[C@@H]1[C@H](O)[C@@H](C)/C=C/C=C/C=C/C=C/C=C/C=C/C=C/[C@H](O[C@@H]2O[C@H](C)[C@@H](O)[C@H](N)[C@@H]2O)C[C@@H]2O[C@](O)(C[C@@H](O)C[C@@H](O)[C@H](O)CC[C@@H](O)C[C@@H](O)CC(=O)O[C@H]1C)C[C@H](O)[C@H]2C(=O)O` [amphotericin B, reference compound], for which the IC50 in data set [1] amounted to 39 nM; in data set [2], 43 nM. Also, the “L. major, in intracellular amastigote form (LD50, μM)” value in data set [3] came out at 0.143 µM.
